# Results: ChEMBL document CHEMBL3351337, “Cytotoxic 1,5-diaryl-3-oxo-1,5-pentadienes: an assessment and comparison of membrane permeability using Caco-2 and MDCK monolayers” (Bioorg Med Chem Lett, 2014)
# Active and inactive are the calls of the source. The rule behind the calls is not given here.
# Legend:
# MDCK [1] = assay: Increase in permeability of lucifer yellow dye across MDCK cells; format: functional, cell-based; conditions: Canis lupus familiaris
# [2] = Cytotoxicity against human Caco2 cells assessed as reduction in cell viability; format: cell-based; conditions: Caco-2
# [3] = Apparent permeability from basolateral to apical side in human Caco2 cells at 50 uM over 2 hrs by isocratic reverse phase HPLC method; format: ADME, cell-based; conditions: Caco-2
# [4] = Efflux ratio, ratio of permeability from basolateral to apical side over apical to basolateral side in human Caco2 cells at 50 uM over 2 hrs by isocratic reverse phase HPLC method; format: ADME, cell-based; conditions: Caco-2
# Caco-2 = assay: Increase in permeability of lucifer yellow dye across human Caco2 cells; format: functional, cell-based
# [5] = Ratio of apparent permeability from basolateral to apical side in MDCK cells to apparent permeability from basolateral to apical side in human Caco2 cells; format: ADME, cell-based; conditions: caco-2
# [6] = Ratio of apparent permeability from apical to basolateral side in MDCK cells to apparent permeability from apical to basolateral side in human Caco2 cells; format: ADME, cell-based; conditions: caco-2
# MDCK [7] = assay: Cytotoxicity against MDCK cells assessed as reduction in cell viability; format: cell-based, Canis lupus familiaris; set-up: concentration or dose not given beside the values; conditions: dog
# [8] = Apparent permeability from apical to basolateral side in MDCK cells at 50 uM over 2 hrs by isocratic reverse phase HPLC method; format: ADME, cell-based, Canis lupus familiaris; conditions: dog
# [9] = Apparent permeability from apical to basolateral side in human Caco2 cells at 50 uM over 2 hrs by isocratic reverse phase HPLC method; format: ADME, cell-based; conditions: Caco-2
# MDCK [10] = assay: (§1) Permeability ratio, ratio of permeability from basolateral to apical side over apical to basolateral side in MDCK cells at 50 uM over 2 hrs by isocratic reverse phase HPLC method; format: ADME, cell-based, Canis lupus familiaris; conditions: dog, mdck, 2 h, 50 µM
# [11] = Apparent permeability from basolateral to apical side in MDCK cells at 50 uM over 2 hrs by isocratic reverse phase HPLC method; format: ADME, cell-based, Canis lupus familiaris; conditions: dog
# [12] = Permeability ratio, ratio of permeability from apical to basolateral side over basolateral to apical side in human Caco2 cells at 50 uM over 2 hrs by isocratic reverse phase HPLC method; format: ADME, cell-based; conditions: caco-2, 2 h
# MDCK [13] = assay: Permeability ratio, ratio of permeability from apical to basolateral side over basolateral to apical side in MDCK cells at 50 uM over 2 hrs by isocratic reverse phase HPLC method; format: ADME, cell-based, Canis lupus familiaris; conditions: dog
# [14] = as §1; format: ADME, cell-based, Canis lupus familiaris; conditions: dog, MDCK
"Papp B→A at 2 h, 50 µM [3]","efflux ratio at 2 h, 50 µM [4]",Ratio [5],Ratio [6],"Papp A→B at 2 h, 50 µM [8]","Papp A→B at 2 h, 50 µM [9]",Ratio (MDCK [10]),"Papp B→A at 2 h, 50 µM [11]",Ratio [12],Ratio (MDCK [13]),"efflux ratio at 2 h, 50 µM [14]",Compound,Activity (MDCK [1]),Activity [2],Activity (Caco-2),Activity (MDCK [7])
7.22 ×10⁻⁶ cm/s,0.31,0.87,0.63,14.7 ×10⁻⁶ cm/s,23.4 ×10⁻⁶ cm/s,,6.28 ×10⁻⁶ cm/s,3.24,2.34,0.43,COc1cccc(/C=C2\CNC/C(=C\c3cccc(OC)c3OC)C2=O)c1OC,Active,Non-toxic,inactive,4%
0.99 ×10⁻⁶ cm/s,0.35,1,0.96,2.7 ×10⁻⁶ cm/s,2.82 ×10⁻⁶ cm/s,,0.99 ×10⁻⁶ cm/s,2.85,2.73,0.37,CCOC(=O)c1ccc(/C=C2\CNC/C(=C\c3ccc(C(=O)OCC)cc3)C2=O)cc1,Active,Non-toxic,inactive,4%
5.83 ×10⁻⁶ cm/s,0.38,1.12,1.42,21.9 ×10⁻⁶ cm/s,15.4 ×10⁻⁶ cm/s,,6.53 ×10⁻⁶ cm/s,2.64,3.35,0.3,O=C1/C(=C/c2cccc(O)c2)CNC/C1=C\c1cccc(O)c1,Active,Non-toxic,inactive,4%
4.12 ×10⁻⁶ cm/s,0.29,2.11,1.54,22.2 ×10⁻⁶ cm/s,14.4 ×10⁻⁶ cm/s,,8.7 ×10⁻⁶ cm/s,3.5,2.55,0.39,COc1ccc(/C=C2\CNC/C(=C\c3ccc(OC)c(OC)c3)C2=O)cc1OC,Active,Non-toxic,inactive,4%
0.6 ×10⁻⁶ cm/s,0.17,0.6,1,3.54 ×10⁻⁶ cm/s,3.53 ×10⁻⁶ cm/s,,0.36 ×10⁻⁶ cm/s,5.88,9.83,0.1,O=C1/C(=C/c2ccccc2F)CNC/C1=C\c1ccccc1F,Active,Non-toxic,inactive,4%
10.4 ×10⁻⁶ cm/s,0.32,1.34,0.88,28.7 ×10⁻⁶ cm/s,32.5 ×10⁻⁶ cm/s,,13.9 ×10⁻⁶ cm/s,3.13,2.06,0.48,COc1ccccc1/C=C1\CNC/C(=C\c2ccccc2OC)C1=O,Active,Non-toxic,inactive,4%

# More lines, now with the values behind:
Compound,"Papp B→A at 2 h, 50 µM [3]","efflux ratio at 2 h, 50 µM [4]",Ratio [5],Ratio [6],"Papp A→B at 2 h, 50 µM [8]","Papp A→B at 2 h, 50 µM [9]",Ratio (MDCK [10]),"Papp B→A at 2 h, 50 µM [11]",Ratio [12],Ratio (MDCK [13]),"efflux ratio at 2 h, 50 µM [14]",Activity (MDCK [1]),Activity [2],Activity (Caco-2),Activity (MDCK [7])
CN(C)c1ccc(/C=C/C(=O)/C=C/c2ccc(N(C)C)cc2)cc1,7.02 ×10⁻⁶ cm/s,0.83,2.27,2.34,19.7 ×10⁻⁶ cm/s,8.42 ×10⁻⁶ cm/s,0.81,15.9 ×10⁻⁶ cm/s,1.2,1.24,,Active,Non-toxic,inactive,4%
O=C(/C=C/c1ccccc1)c1ccccc1 [CHALCONE],1.05 ×10⁻⁶ cm/s,0.36,1.2,1.33,3.84 ×10⁻⁶ cm/s,2.89 ×10⁻⁶ cm/s,,1.26 ×10⁻⁶ cm/s,2.75,3.05,0.33,Active,Non-toxic,inactive,4%
CCOP(=O)(OCC)N1C/C(=C\c2ccc(OC)c(OC)c2)C(=O)/C(=C/c2ccc(OC)c(OC)c2)C1,8.17 ×10⁻⁶ cm/s,0.15,3.39,1.14,62.3 ×10⁻⁶ cm/s,54.7 ×10⁻⁶ cm/s,,27.7 ×10⁻⁶ cm/s,6.7,2.25,0.44,Active,Non-toxic,inactive,4%
CCOP(=O)(OCC)N1C/C(=C\c2cc(OC)c(OC)c(OC)c2)C(=O)/C(=C/c2cc(OC)c(OC)c(OC)c2)C1,8.82 ×10⁻⁶ cm/s,0.31,5.73,3.68,105 ×10⁻⁶ cm/s,28.5 ×10⁻⁶ cm/s,,50.3 ×10⁻⁶ cm/s,3.23,2.08,0.48,Active,Non-toxic,inactive,4%
